Data published in article PMC6697720, “Saturation of acyl chains converts cardiolipin from an antagonist to an activator of Toll-like receptor-4” (Cellular and Molecular Life Sciences: CMLS, 2019).

Tested on: primary human monocytes
Experiment: TNF-α and IL-1β secretion in primary human monocytes incubated with CL
Type: cell-based
Conditions: CL alone, overnight
Procedure: Human monocytes were isolated from PBMCs by immunomagnetic negative selection using the EasySep™ human monocyte enrichment kit without CD16 depletion (STEMCELL™ Technologies).
100.000 of freshly isolated PBMCs or monocytes were mixed with stimulants to a final volume of 160 μL/well in round bottom 96-well plates.
After stimulation, supernatants were collected, centrifuged, and assayed for cytokine secretion, while cells were assayed for viability.
TNF-α and IP-10 were quantified in cell supernatants using DuoSet ELISA kits from R&D Systems and human IL-1β using Instant ELISA™ Kit from Invitrogen, according to the manufacturer’s instructions. Absorbance was read with a BioTek Synergy HT Microplate Readers.
Fig. 3 Saturated but not unsaturated CLs have pro-inflammatory properties. a RAW-Blue™ cells were incubated overnight with the indicated amount of CL or LPS, supernatants were collected, and NF-κB activation quantified via Quanti-Blue™ test and reported here as fold induction as compared to control. Unpaired t test: differences with respect to the control (Ctrl) are not significant if p > 0.05 (no symbol); *p ≤ 0.0007. b Immortalized BMDM cells were incubated overnight with the indicated amount of CL or LPS; supernatants were collected and TNF-α quantified via ELISA assay. c, d Primary human monocytes were incubated overnight with the indicated amount of CL or LPS with or without the NLRP3 inhibitor MCC950, supernatants were collected, and TNF-α and IL-1β were quantified via ELISA assay. Graphs are representative of experiments from six different donors. Unpaired t test: differences with respect to the control (Ctrl) are not significant if p > 0.05 (no symbol); *p ≤ 0.021. Each bar represents the mean + standard deviation of three biological replicates (n = 3). Graphs are representative of at least three independent experiments
C18:0 and C18:2 CLs’ pro-inflammatory activities were validated in primary monocytes isolated from human donor blood. C18:0 CL but not C18:2 CL reproduced LPS activity inducing TNF-α and IL-1β secretion in a dose-dependent manner (Fig. 3c, d).

SMILES: CCCCCCCCCCCCCCCCCC(=O)OC[C@H](COP(=O)(O)OCC(O)COP(=O)(O)OC[C@@H](COC(=O)CCCCCCCCCCCCCCCCC)OC(=O)CCCCCCCCCCCCCCCCC)OC(=O)CCCCCCCCCCCCCCCCC (some centres unmarked) [C18:0 CL]
- IL-1β secretion: inducing
- TNF-α secretion: inducing
